Laboratory results taken from US20250188095A1, “DISUBSTITUTED OCTAHYDROPYRROLO[3,4-c]PYRROLYL METHYL KETONE DERIVATIVE AND USE THEREOF” (JIANGSU NHWA PHARMACEUTICAL CO., LTD, priority 2022, published 2025).

Key:
OX1 receptor = OX1 receptor (Homo sapiens (Human), UniProt O43613); test: In vitro activity test (Cisbio IP-one, CHO-K1-OX1 cells, antagonism of EC80 Orexin A); assay type: cell-based
Experimental: (§1) (1) Preparation of a reaction buffer (1×Stimulation buffer) required for the experiment: The 5×Stimulation buffer and ddH2O in the Cisbio IP-one kit were diluted in a ratio of 1:4 for later use.
(§2) (2) Compound preparation: The compound was diluted with DMSO to obtain a 5 mM stock solution, followed by a 3.16-fold dilution to obtain 10 gradients, and then the prepared compound was diluted with the Stimulation buffer to the corresponding concentrations (4×) for later use.
(§3) (3) Cell preparation: CHO-K1-OX1 and CHO-K1-OX2 cells on the culture dish were digested with trypsin, and the cells were washed off with culture medium and collected into 5 mL centrifuge tubes. The cells were centrifuged at 1000 rpm for 5 min, and the supernatant was discarded. 3 mL of PBS was added, and the mixture was gently pipetted to be mixed well. The cells were centrifuged again at 1000 rpm for 5 min, and the supernatant was discarded. The cells were resuspended in 1×Stimulation buffer and counted using a Countstar cell counter, and the cell density was adjusted to 1.71×10^6 cells/mL for later use.
(§4) (4) Cell addition: The cell suspensions were added to assay plates at 7 μL/well (i.e., about 12,000 cells/well).
(§5) (5) Compound addition: The compound diluted with the Stimulation buffer was added to the assay plates described above at 3.5 μL/well.
(§6) (6) Reaction and incubation: After gentle shaking, the assay plates were incubated at 37° C. for 30 min.
(§7) (7) EC80 agonist addition: 4×Orexin A (OX1 receptor) and 4×Orexin 2 receptor agonist (OX2 receptor) solutions of EC80 were added at 3.5 μL/well.
(§8) (8) Reaction and incubation: After gentle shaking, the assay plates were incubated at 37° C. for 45 min.
(§9) (9) Detection reagent addition: IP1-d2 and Anti-IP1 cryptate were separately diluted in a 1:20 ratio with the Lysis & detection buffer in the Cisbio IP-one detection kit, and the diluted IP1-d2 and Anti-IP1 cryptate described above were added to the assay plates, each at 3 μL/well. After shaking, the assay plates were left to stand at room temperature for 60 min.
(§10) (10) Experimental readings: The plate was read on Envision, readings from the 665 nm and 615 nm channels were taken, and the ratio of 665 nm/615 nm readings was calculated.
(§11) Based on the antagonistic effect values of the compound sample at different concentration test points, antagonistic curves of the compound sample against the orexin receptors were fitted using GraphPad Prism software, and the IC50 was calculated.

OX2 receptor = OX2 receptor (Homo sapiens (Human), UniProt O43614); test: In vitro activity test (Cisbio IP-one, CHO-K1-OX2 cells, antagonism of EC80 agonist); assay type: cell-based
Sequence of OX2 receptor (O43614 whole entry): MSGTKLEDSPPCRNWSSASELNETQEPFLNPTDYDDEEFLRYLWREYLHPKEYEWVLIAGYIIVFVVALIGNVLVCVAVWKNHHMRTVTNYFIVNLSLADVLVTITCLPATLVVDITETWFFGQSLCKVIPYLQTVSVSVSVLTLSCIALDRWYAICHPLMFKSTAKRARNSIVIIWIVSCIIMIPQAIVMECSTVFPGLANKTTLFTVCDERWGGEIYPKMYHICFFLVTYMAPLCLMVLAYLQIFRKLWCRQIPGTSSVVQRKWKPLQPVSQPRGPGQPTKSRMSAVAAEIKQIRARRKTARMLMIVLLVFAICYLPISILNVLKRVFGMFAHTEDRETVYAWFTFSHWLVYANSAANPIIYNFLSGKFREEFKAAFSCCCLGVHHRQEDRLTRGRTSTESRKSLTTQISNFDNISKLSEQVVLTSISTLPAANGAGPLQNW
Experimental: as §1, §2, §3, §4, §5, §6, §7, §8, §9, §10, §11

Sequence of OX1 receptor (O43613 whole entry): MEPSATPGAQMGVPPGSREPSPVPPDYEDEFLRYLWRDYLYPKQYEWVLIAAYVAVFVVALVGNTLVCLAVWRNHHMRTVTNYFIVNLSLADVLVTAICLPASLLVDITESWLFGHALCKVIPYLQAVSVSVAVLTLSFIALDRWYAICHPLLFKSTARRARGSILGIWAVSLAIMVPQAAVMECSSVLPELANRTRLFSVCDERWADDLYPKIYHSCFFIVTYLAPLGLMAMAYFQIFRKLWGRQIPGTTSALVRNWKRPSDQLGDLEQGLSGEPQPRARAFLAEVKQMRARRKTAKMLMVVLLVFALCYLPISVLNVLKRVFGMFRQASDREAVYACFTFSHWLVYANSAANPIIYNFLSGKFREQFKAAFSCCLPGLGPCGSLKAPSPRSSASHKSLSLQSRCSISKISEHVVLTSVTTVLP

| IC50 (OX1 receptor) [nM] | IC50 (OX2 receptor) [nM] | Structure (SMILES) |
| --- | --- | --- |
| > 1000 | 100 to 300 | Cc1cc(C)nc(N2C[C@H]3CN(C(=O)c4c(-c5ccccc5)cn5ccccc45)C[C@H]3C2)n1 [Example 1, ((3aR,6aS)-5-(4,6-dimethylpyrimidin-2-yl)hexahydropyrrolo[3,4-c]pyrrol-2(1H)-yl)(2-phenylindolizin-1-yl)methanone] |
| > 1000 | < 100 | Cc1cc(C)nc(N2C[C@H]3CN(C(=O)c4c(-c5ccccn5)nn5ccccc45)C[C@H]3C2)n1 [Example 6, ((3aR,6aS)-5-(4,6-dimethylpyrimidin-2-yl)hexahydropyrrolo[3,4-c]pyrrol-2(1H)-yl)(2-(pyridin-2-yl)pyrazolo[1,5-a]pyridin-3-yl)methanone] |
| > 1000 | < 100 | Cc1nc(N2C[C@H]3CN(C(=O)c4c(-c5ncccc5F)cn5ccccc45)C[C@H]3C2)nc2ccoc12 [Example 7, (2-(3-fluoropyridin-2-yl)indolizin-1-yl)((3aR,6aS)-5-(4-methylfuro [3,2-d]pyrimidin-2-yl)hexahydropyrrolo[3,4-c]pyrrol-2(1H)-yl)methanone] |
| > 1000 | 100 to 300 | Cc1cc(C)nc(N2C[C@H]3CN(C(=O)c4c(-c5ncccc5C(F)(F)F)cn5ccccc45)C[C@H]3C2)n1 [Example 11, ((3aR,6aS)-5-(4,6-dimethylpyrimidin-2-yl)hexahydropyrrolo[3,4-c]pyrrol-2(1H)-yl)(2-(3-(trifluoromethyl)pyridin-2-yl)indolizin-1-yl)methanone] |
| > 1000 | 100 to 300 | Cc1cc(C)nc(N2C[C@H]3CN(C(=O)c4c(-c5ccccc5)nn5cccnc45)C[C@H]3C2)n1 [Example 12, ((3aR,6aS)-5-(4,6-dimethylpyrimidin-2-yl)hexahydropyrrolo[3,4-c]pyrrol-2(1H)-yl)(2-phenylpyrazolo[1,5-a]pyrimidin-3-yl)methanone] |
| > 1000 | 100 to 300 | Cc1cc(C)nc(N2C[C@H]3CN(C(=O)c4c(-c5ccccc5)nn5ncccc45)C[C@H]3C2)n1 [Example 14, ((3aR,6aS)-5-(4,6-dimethylpyrimidin-2-yl)hexahydropyrrolo[3,4-c]pyrrol-2(1H)-yl)(2-phenylpyrazolo[1,5-b]pyridazin-3-yl)methanone] |
| > 1000 | < 100 | Cc1cc(C)nc(N2C[C@H]3CN(C(=O)c4c(-c5ncccc5F)cn5cc(F)ccc45)C[C@H]3C2)n1 [Example 18, ((3aR,6aS)-5-(4,6-dimethylpyrimidin-2-yl)hexahydropyrrolo[3,4-c]pyrrol-2(1H)-yl)(6-fluoro-2-(3-fluoropyridin-2-yl)indolizin-1-yl)methanone] |
| > 1000 | < 100 | Cc1cc(C)nc(N2C[C@H]3CN(C(=O)c4c(-c5ccccn5)cn5cc(F)ccc45)C[C@H]3C2)n1 [Example 19, ((3aR,6aS)-5-(4,6-dimethylpyrimidin-2-yl)hexahydropyrrolo[3,4-c]pyrrol-2(1H)-yl)(6-fluoro-2-(pyridin-2-yl)indolizin-1-yl)methanone] |
| > 1000 | < 100 | Cc1cc(C)nc(N2C[C@H]3CN(C(=O)c4c(-c5ncccn5)cn5ccccc45)C[C@H]3C2)n1 [Example 21, ((3aR,6aS)-5-(4,6-dimethylpyrimidin-2-yl)hexahydropyrrolo[3,4-c]pyrrol-2(1H)-yl)(2-(pyrimidin-2-yl)indolizin-1-yl)methanone] |
| > 1000 | < 100 | Cc1nc(N2C[C@H]3CN(C(=O)c4c(-c5ccccn5)cn5ccccc45)C[C@H]3C2)nc(C)c1F [Example 24, ((3aR,6aS)-5-(5-fluoro-4,6-dimethylpyrimidin-2-yl)hexahydropyrrolo [3,4-c]pyrrol-2(1H)-yl)(2-(pyridin-2-yl)indolizin-1-yl)methanone] |

Continued, molecule first:

| Structure (SMILES) | IC50 (OX1 receptor) [nM] | IC50 (OX2 receptor) [nM] |
| --- | --- | --- |
| Cc1cc(C)nc(N2C[C@H]3CN(C(=O)c4c(-c5ccccn5)cn5ccccc45)C[C@H]3C2)n1 [Example 2, ((3aR,6aS)-5-(4,6-dimethylpyrimidin-2-yl)hexahydropyrrolo[3,4-c]pyrrol-2(1H)-yl)(2-(pyridin-2-yl)indolizin-1-yl)methanone] | > 1000 | 100 to 300 |
| Cc1cc(C)nc(N2C[C@H]3CN(C(=O)c4c(-c5ccc(C)s5)cn5ccccc45)C[C@H]3C2)n1 [Example 4, ((3aR,6aS)-5-(4,6-dimethylpyrimidin-2-yl)hexahydropyrrolo[3,4-c]pyrrol-2(1H)-yl)(2-(5-methylthiophen-2-yl)indolizin-1-yl)methanone] | > 1000 | < 100 |
| Cc1nc(N2C[C@H]3CN(C(=O)c4c(-c5ncccc5F)cn5ccccc45)C[C@H]3C2)nn2cccc12 [Example 8, (2-(3-Fluoropyridin-2-yl)indolizin-1-yl)((3aR,6aS)-5-(4-methylpyrrolo [2,1-f][1,2,4]triazin-2-yl)hexahydropyrrolo[3,4-c]pyrrol-2(1H)-yl)methanone] | > 1000 | < 100 |
| Cc1cc(C)nc(N2C[C@H]3CN(C(=O)c4c(-c5nccs5)cn5ccccc45)C[C@H]3C2)n1 [Example 9, ((3aR,6aS)-5-(4,6-dimethylpyrimidin-2-yl)hexahydropyrrolo[3,4-c]pyrrol-2(1H)-yl)(2-(thiazol-2-yl)indolizin-1-yl)methanone] | > 1000 | 100 to 300 |
| O=C(c1c(-c2ncccc2F)cn2ccccc12)N1C[C@@H]2CN(c3cnc4ccccc4n3)C[C@@H]2C1 [Example 10, (2-(3-Fluoropyridin-2-yl)indolizin-1-yl)((3aR,6aS)-5-(quinoxalin-2-yl)hexahydropyrrolo[3,4-c]pyrrol-2(1H)-yl)methanone] | > 1000 | 100 to 300 |
| Cc1cc(C)nc(N2C[C@H]3CN(C(=O)c4c(-c5ccccc5)nn5ccncc45)C[C@H]3C2)n1 [Example 13, ((3aR,6aS)-5-(4,6-dimethylpyrimidin-2-yl)hexahydropyrrolo[3,4-c]pyrrol-2(1H)-yl)(2-phenylpyrazolo[1,5-a]pyrazin-3-yl)methanone] | > 1000 | 100 to 300 |
| Cc1cc(C)nc(N2C[C@H]3CN(C(=O)c4c(-c5ccccc5F)cn5ccccc45)C[C@H]3C2)n1 [Example 15, ((3aR,6aS)-5-(4,6-dimethylpyrimidin-2-yl)hexahydropyrrolo[3,4-c]pyrrol-2(1H)-yl)(2-(2-fluorophenyl)indolizin-1-yl)methanone] | > 1000 | < 100 |
| Cc1cc(C)nc(N2C[C@H]3CN(C(=O)c4c(-c5ccsc5)cn5ccccc45)C[C@H]3C2)n1 [Example 17, ((3aR,6aS)-5-(4,6-dimethylpyrimidin-2-yl)hexahydropyrrolo[3,4-c]pyrrol-2(1H)-yl)(2-(thiophen-3-yl)indolizin-1-yl)methanone] |  | < 100 |
| Cc1cc(C)nc(N2C[C@H]3CN(C(=O)c4c(-c5ncco5)cn5ccccc45)C[C@H]3C2)n1 [Example 20, ((3aR,6aS)-5-(4,6-dimethylpyrimidin-2-yl)hexahydropyrrolo[3,4-c]pyrrol-2(1H)-yl)(2-(oxazol-2-yl)indolizin-1-yl)methanone] | > 1000 | < 100 |
